Measurements: the NIST ThermoML archive (doi:10.1016/j.jct.2016.12.036)
Numbers after ± are expanded uncertainties. One block for each compound: values may come before it.

Tests used:
[1] = 298.15 K, 81.5 kPa, Liquid; for viscosity: Capillary tube (Ostwald / Ubbelohde) method; for mass density: Vibrating tube method
[2] = refractive index (Na D-line) (dimensionless); conditions: 298.15 K; 81.5 kPa; Liquid; Standard Abbe refractometry
[3] = excess molar enthalpy (molar enthalpy of mixing); xn = mol fraction of the nth substance listed; conditions: 298 K, 81.5 kPa, Liquid, Isoperibol calorimetry

excess molar enthalpy ([3]; x1 = 0.0999): -0.204 ± 0.00263 kcal/mol
excess molar enthalpy ([3]; x1 = 0.1999): -0.369 ± 0.00454 kcal/mol
excess molar enthalpy ([3]; x1 = 0.3009): -0.461 ± 0.00574 kcal/mol
excess molar enthalpy ([3]; x1 = 0.4025): -0.473 ± 0.00598 kcal/mol
excess molar enthalpy ([3]; x1 = 0.5055): -0.424 ± 0.00526 kcal/mol
excess molar enthalpy ([3]; x1 = 0.6098): -0.338 ± 0.0043 kcal/mol
excess molar enthalpy ([3]; x1 = 0.6982): -0.237 ± 0.00311 kcal/mol
excess molar enthalpy ([3]; x1 = 0.7999): -0.143 ± 0.00189 kcal/mol
excess molar enthalpy ([3]; x1 = 0.9): -0.0601 ± 0.000908 kcal/mol
Structure (SMILES): NCCN [ethane-1,2-diamine] + CCC(C)O

excess molar enthalpy ([3]; x1 = 0.1003): -0.275 ± 0.00359 kcal/mol
excess molar enthalpy ([3]; x1 = 0.2002): -0.486 ± 0.00598 kcal/mol
excess molar enthalpy ([3]; x1 = 0.3011): -0.594 ± 0.00741 kcal/mol
excess molar enthalpy ([3]; x1 = 0.4024): -0.6 ± 0.00741 kcal/mol
excess molar enthalpy ([3]; x1 = 0.5053): -0.535 ± 0.00669 kcal/mol
excess molar enthalpy ([3]; x1 = 0.6097): -0.428 ± 0.00526 kcal/mol
excess molar enthalpy ([3]; x1 = 0.6983): -0.312 ± 0.00406 kcal/mol
excess molar enthalpy ([3]; x1 = 0.8): -0.192 ± 0.00239 kcal/mol
excess molar enthalpy ([3]; x1 = 0.8999): -0.0853 ± 0.00122 kcal/mol
Structure (SMILES): NCCN [ethane-1,2-diamine] + CCCCO

excess molar enthalpy ([3]; x1 = 0.1): -0.307 ± 0.00406 kcal/mol
excess molar enthalpy ([3]; x1 = 0.199): -0.529 ± 0.00669 kcal/mol
excess molar enthalpy ([3]; x1 = 0.3043): -0.65 ± 0.00813 kcal/mol
excess molar enthalpy ([3]; x1 = 0.4066): -0.66 ± 0.00813 kcal/mol
excess molar enthalpy ([3]; x1 = 0.5106): -0.594 ± 0.00741 kcal/mol
excess molar enthalpy ([3]; x1 = 0.5944): -0.507 ± 0.00621 kcal/mol
excess molar enthalpy ([3]; x1 = 0.697): -0.387 ± 0.00478 kcal/mol
excess molar enthalpy ([3]; x1 = 0.7983): -0.254 ± 0.00335 kcal/mol
excess molar enthalpy ([3]; x1 = 0.8996): -0.121 ± 0.00167 kcal/mol
Structure (SMILES): NCCN [ethane-1,2-diamine] + CCCO

excess molar enthalpy ([3]; x1 = 0.1003): -0.354 ± 0.00454 kcal/mol
excess molar enthalpy ([3]; x1 = 0.201): -0.6 ± 0.00741 kcal/mol
excess molar enthalpy ([3]; x1 = 0.301): -0.72 ± 0.00884 kcal/mol
excess molar enthalpy ([3]; x1 = 0.4042): -0.735 ± 0.00908 kcal/mol
excess molar enthalpy ([3]; x1 = 0.4958): -0.688 ± 0.0086 kcal/mol
excess molar enthalpy ([3]; x1 = 0.5987): -0.584 ± 0.00717 kcal/mol
excess molar enthalpy ([3]; x1 = 0.7006): -0.452 ± 0.00574 kcal/mol
excess molar enthalpy ([3]; x1 = 0.8007): -0.305 ± 0.00382 kcal/mol
excess molar enthalpy ([3]; x1 = 0.8987): -0.153 ± 0.00208 kcal/mol
Structure (SMILES): NCCN [ethane-1,2-diamine] + CCO

excess molar enthalpy ([3]; x1 = 0.0995): -0.486 ± 0.00621 kcal/mol
excess molar enthalpy ([3]; x1 = 0.1972): -0.831 ± 0.0103 kcal/mol
excess molar enthalpy ([3]; x1 = 0.295): -1.01 ± 0.0124 kcal/mol
excess molar enthalpy ([3]; x1 = 0.3909): -1.05 ± 0.0129 kcal/mol
excess molar enthalpy ([3]; x1 = 0.4934): -0.976 ± 0.012 kcal/mol
excess molar enthalpy ([3]; x1 = 0.5948): -0.834 ± 0.0103 kcal/mol
excess molar enthalpy ([3]; x1 = 0.6953): -0.655 ± 0.00813 kcal/mol
excess molar enthalpy ([3]; x1 = 0.7971): -0.449 ± 0.00574 kcal/mol
excess molar enthalpy ([3]; x1 = 0.8994): -0.225 ± 0.00311 kcal/mol
Structure (SMILES): NCCN [ethane-1,2-diamine] + CO

The remaining lines, values behind:

Structure (SMILES): CCCCO [butan-1-ol]
viscosity [1]: 2.572 ± 0.055 mPa·s
mass density [1]: 806 ± 1 kg/m3
refractive index [2]: 1.3967 ± 0.001

Structure (SMILES): CCC(C)O (stereo not given) [butan-2-ol]
viscosity [1]: 3.05 ± 0.067 mPa·s
mass density [1]: 802.5 ± 1 kg/m3
refractive index [2]: 1.3945 ± 0.0011

Structure (SMILES): NCCN [ethane-1,2-diamine]
viscosity [1]: 1.385 ± 0.029 mPa·s
mass density [1]: 892.8 ± 1 kg/m3
refractive index [2]: 1.4537 ± 0.0011

Structure (SMILES): NCCN [ethane-1,2-diamine] + CC(C)O
excess molar enthalpy ([3]; x1 = 0.1001): -0.209 ± 0.00263 kcal/mol
excess molar enthalpy ([3]; x1 = 0.2): -0.372 ± 0.00478 kcal/mol
excess molar enthalpy ([3]; x1 = 0.3007): -0.462 ± 0.00574 kcal/mol
excess molar enthalpy ([3]; x1 = 0.4033): -0.478 ± 0.00598 kcal/mol
excess molar enthalpy ([3]; x1 = 0.5073): -0.435 ± 0.0055 kcal/mol
excess molar enthalpy ([3]; x1 = 0.5963): -0.363 ± 0.00454 kcal/mol
excess molar enthalpy ([3]; x1 = 0.6988): -0.275 ± 0.00359 kcal/mol
excess molar enthalpy ([3]; x1 = 0.7998): -0.179 ± 0.00232 kcal/mol
excess molar enthalpy ([3]; x1 = 0.8998): -0.0844 ± 0.0012 kcal/mol

Structure (SMILES): CCO [ethanol]
viscosity [1]: 1.093 ± 0.023 mPa·s
mass density [1]: 785.2 ± 1 kg/m3
refractive index [2]: 1.3588 ± 0.001

Structure (SMILES): CO [methanol]
viscosity [1]: 0.573 ± 0.012 mPa·s
mass density [1]: 786.7 ± 1 kg/m3
refractive index [2]: 1.3263 ± 0.0011

Structure (SMILES): CCCO [propan-1-ol]
viscosity [1]: 1.943 ± 0.041 mPa·s
mass density [1]: 799.5 ± 1 kg/m3
refractive index [2]: 1.3825 ± 0.001

Structure (SMILES): CC(C)O [propan-2-ol]
viscosity [1]: 2.067 ± 0.044 mPa·s
mass density [1]: 781 ± 1 kg/m3
refractive index [2]: 1.3745 ± 0.0011
